Assay results published in publication PMC6669961, “Design and Optimization of Thioglycosyl–naphthalimides as Efficient Inhibitors Against Human O-GlcNAcase” (Frontiers in Chemistry, 2019).

Tests used:
[1] = target: T1, human β-N-acetylhexosaminidase B (HsHexB) (Homo sapiens, UniProt P07686); experiment: Enzyme inhibitory activity test against HsHexB (4-MU-GlcNAc substrate, end-point fluorescence; Dixon plots for Ki); type: biochemical; settings: pH 4.5; for inhibition at 100 µM: 100 μM inhibitor, 40 μM 4-MU-GlcNAc, 30°C, 30 min, read-out: Inhibition rate at 100 μM (%) HsHexB; for Ki: Dixon plots, 4-MU-GlcNAc 40, 20, 10 μM
T1 construct: made in house; host or cells: Pichia pastoris
T1 sequence (P07686 122-556): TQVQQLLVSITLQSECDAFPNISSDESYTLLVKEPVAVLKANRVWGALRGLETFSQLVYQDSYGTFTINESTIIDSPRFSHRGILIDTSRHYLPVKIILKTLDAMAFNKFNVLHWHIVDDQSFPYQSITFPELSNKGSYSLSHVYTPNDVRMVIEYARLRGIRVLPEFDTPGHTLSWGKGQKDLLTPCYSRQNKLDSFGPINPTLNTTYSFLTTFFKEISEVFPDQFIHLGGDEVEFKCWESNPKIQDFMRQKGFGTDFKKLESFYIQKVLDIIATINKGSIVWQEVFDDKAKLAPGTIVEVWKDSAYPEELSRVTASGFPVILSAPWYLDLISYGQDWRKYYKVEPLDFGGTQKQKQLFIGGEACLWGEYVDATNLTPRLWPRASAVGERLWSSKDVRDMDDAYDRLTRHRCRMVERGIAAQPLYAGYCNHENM
Description: (§1) Human O-GlcNAcase (hOGA) was expressed in Escherichia coli BL21(DE3) and purified according to previous methods (Kong et al., [2016]). Human β-N-acetylhexosaminidase B (HsHexB) was overexpressed in Pichia pastoris and then purified as described previously (Shen et al., [2018a]).
(§2) All target compounds were evaluated for their inhibitory activities against hOGA and HsHexB in end-point experiments. 4-Methylumbelliferyl N-acetyl-β-D-glucosaminide (4-MU-GlcNAc) was used as substrate. In a final assay volume of 100 μL, inhibitor and substrate (40 μM) were mixed with Britton-Robinson buffer (hOGA, pH 6.5; HsHexB, pH 4.5) and enzyme; then, the assay components were incubated at 30°C for 30 min. Subsequently, the enzymatic reaction was terminated by the addition of 100 μL 0.5 M Na2CO3 solution. The fluorescence of the liberated 4-methylumbelliferone (Mu) was quantified at an excitation of 366 nm and emission of 445 nm on a Varioskan Flash microplate reader (Thermo Fisher Scientific, USA). To determine the inhibition constant (Ki), Dixon plots were performed by changing the concentration of the 4-MU-GlcNAc (40, 20, and 10 μM).

human O-GlcNAcase (hOGA) = target: T2, human O-GlcNAcase (hOGA) (Homo sapiens, UniProt O60502); experiment: Enzyme inhibitory activity test against hOGA (4-MU-GlcNAc substrate, end-point fluorescence; Dixon plots for Ki); type: biochemical; settings: for inhibition at 100 µM: 100 μM inhibitor, 40 μM 4-MU-GlcNAc, 30°C, 30 min, read-out: Inhibition rate at 100 μM (%) hOGA; for inhibition at 100 µM / Ki: pH 6.5; for Ki: Dixon plots, 4-MU-GlcNAc 40, 20, 10 μM; for inhibitory mechanism toward hOGA: kinetic studies via Dixon plots; for decrease in inhibitory activity against hOGA: NHC2H5 (17a or 17d) compared to NHCH3 (16h or 17c)
T2 construct: made in house; host or cells: Escherichia coli BL21(DE3)
T2 sequence (O60502 1-916): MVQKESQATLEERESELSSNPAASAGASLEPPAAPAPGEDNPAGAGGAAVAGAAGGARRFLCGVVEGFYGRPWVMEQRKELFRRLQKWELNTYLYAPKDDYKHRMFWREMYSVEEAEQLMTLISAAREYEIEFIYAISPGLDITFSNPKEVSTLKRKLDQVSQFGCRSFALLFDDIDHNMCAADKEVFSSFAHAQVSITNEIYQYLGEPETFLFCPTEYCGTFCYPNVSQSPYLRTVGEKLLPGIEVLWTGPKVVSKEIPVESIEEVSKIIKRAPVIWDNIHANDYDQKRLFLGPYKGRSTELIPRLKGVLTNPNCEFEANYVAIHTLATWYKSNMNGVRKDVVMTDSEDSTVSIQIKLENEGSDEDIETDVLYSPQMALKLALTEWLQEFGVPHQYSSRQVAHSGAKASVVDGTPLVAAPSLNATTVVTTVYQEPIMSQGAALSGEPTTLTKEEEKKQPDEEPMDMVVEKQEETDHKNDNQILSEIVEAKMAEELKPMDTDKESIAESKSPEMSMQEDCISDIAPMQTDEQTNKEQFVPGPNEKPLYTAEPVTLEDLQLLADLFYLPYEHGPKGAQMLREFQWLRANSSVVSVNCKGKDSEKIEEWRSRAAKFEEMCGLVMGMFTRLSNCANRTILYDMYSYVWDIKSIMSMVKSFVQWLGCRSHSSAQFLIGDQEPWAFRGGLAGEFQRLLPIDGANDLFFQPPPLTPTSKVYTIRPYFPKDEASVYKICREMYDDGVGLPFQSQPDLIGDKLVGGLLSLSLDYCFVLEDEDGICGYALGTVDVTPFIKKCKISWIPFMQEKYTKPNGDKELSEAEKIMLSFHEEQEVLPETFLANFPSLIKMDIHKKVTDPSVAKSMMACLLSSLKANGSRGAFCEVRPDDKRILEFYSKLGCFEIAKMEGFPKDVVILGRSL
Description: as §1, §2

HsHex = settings: NGT; ref Knapp et al., 1996; read-out: Ki against HsHex; cited from earlier work

Compound	inhibition at 100 µM [1] [%]	Ki [1] [µM]	inhibition at 100 µM (human O-GlcNAcase (hOGA)) [%]	Ki (human O-GlcNAcase (hOGA)) [µM]	increase in potency against hOGA (human O-GlcNAcase (hOGA); compared to lead compound 2 (Ki)) [fold]	inhibitory mechanism toward hOGA (human O-GlcNAcase (hOGA))	decrease in inhibitory potency against hOGA (human O-GlcNAcase (hOGA); 10d compared to 10a (Ki)) [fold]	potency against hOGA reduced (human O-GlcNAcase (hOGA); 16h (NHCH3) compared to 16d (CH2CH3))	decrease in inhibitory activity against hOGA (human O-GlcNAcase (hOGA)) [fold]	Ki (HsHex) [µM]
CC(C)C(=O)N[C@@H]1[C@@H](O)[C@H](O)[C@@H](CO)O[C@H]1SCC(=O)NCCCN1C(=O)c2cccc3c(N4CCCCC4)ccc(c23)C1=O [Compound 16f]	21.4 ± 0.5	> 100	72.2 ± 0.3	23.6 ± 0.43	–	–	–	–	–	–
O=C(CS[C@@H]1O[C@H](CO)[C@@H](O)[C@H](O)[C@H]1NC(=O)C(F)(F)F)NCCCN1C(=O)c2cccc3c(N4CCCCC4)ccc(c23)C1=O [Compound 16g]	6.4 ± 0.7	> 100	82.7 ± 1	6.37 ± 0.09	–	–	–	–	–	–
CNC(=O)N[C@@H]1[C@@H](O)[C@H](O)[C@@H](CO)O[C@H]1SCC(=O)NCCCN1C(=O)c2cccc3c(N4CCCCC4)ccc(c23)C1=O [Compound 16h]	25.2 ± 0.3	> 100	85.5 ± 1.5	6.6 ± 0.22	–	–	–	about 4 fold	–	–
O=C(CS[C@@H]1O[C@H](CO)[C@@H](O)[C@H](O)[C@H]1NC(=O)c1ccccc1)NCCCN1C(=O)c2cccc3c(Br)ccc(c23)C1=O [Compound 16j]	49.1 ± 1.4	> 100	41.1 ± 0.6	> 100	–	–	–	–	–	–
O=C(CS[C@@H]1O[C@H](CO)[C@@H](O)[C@H](O)[C@H]1NC(=O)c1ccc(F)cc1)NCCCN1C(=O)c2cccc3c(Br)ccc(c23)C1=O [Compound 16k]	48.5 ± 1.7	> 100	48 ± 0.9	> 100	–	–	–	–	–	–
CCC(=O)N[C@@H]1[C@@H](O)[C@H](O)[C@@H](CO)O[C@H]1SCC(=O)NCCCN1C(=O)c2cccc3c(Br)ccc(c23)C1=O [Compound 16l]	41.8 ± 1	> 100	97.7 ± 2.2	0.72 ± 0.01	–	–	–	–	–	–
CCCC(=O)N[C@@H]1[C@@H](O)[C@H](O)[C@@H](CO)O[C@H]1SCC(=O)NCCCN1C(=O)c2cccc3c(Br)ccc(c23)C1=O [Compound 16m]	39.8 ± 2.3	> 100	97.1 ± 1.3	4.36 ± 0.21	–	–	–	–	–	–
CC(C)C(=O)N[C@@H]1[C@@H](O)[C@H](O)[C@@H](CO)O[C@H]1SCC(=O)NCCCN1C(=O)c2cccc3c(Br)ccc(c23)C1=O [Compound 16n]	37 ± 0.4	> 100	87.8 ± 0.4	6.92 ± 0.1	–	–	–	–	–	–
O=C(CS[C@@H]1O[C@H](CO)[C@@H](O)[C@H](O)[C@H]1NC(=O)C(F)(F)F)NCCCN1C(=O)c2cccc3c(Br)ccc(c23)C1=O [Compound 16o]	37.7 ± 0.9	> 100	90.9 ± 0.2	4.62 ± 0.18	–	–	–	–	–	–
CCNC(=O)N[C@@H]1[C@@H](O)[C@H](O)[C@@H](CO)O[C@H]1SCC(=O)NCCCN1C(=O)c2cccc3c(N4CCCCC4)ccc(c23)C1=O [Compound 17a]	25.9 ± 0.3	> 100	68.6 ± 0.8	12 ± 0.3	–	–	–	–	2 to 3	–
CCCNC(=O)N[C@@H]1[C@@H](O)[C@H](O)[C@@H](CO)O[C@H]1SCC(=O)NCCCN1C(=O)c2cccc3c(N4CCCCC4)ccc(c23)C1=O [Compound 17b]	22.7 ± 0.2	> 100	66.3 ± 0.6	13.83 ± 0.02	–	–	–	–	–	–
CNC(=O)N[C@@H]1[C@@H](O)[C@H](O)[C@@H](CO)O[C@H]1SCC(=O)NCCCN1C(=O)c2cccc3c(Br)ccc(c23)C1=O [Compound 17c]	40.7 ± 0.7	> 100	96.7 ± 1.6	2.17 ± 0.13	–	–	–	–	–	–
CCNC(=O)N[C@@H]1[C@@H](O)[C@H](O)[C@@H](CO)O[C@H]1SCC(=O)NCCCN1C(=O)c2cccc3c(Br)ccc(c23)C1=O [Compound 17d]	26.3 ± 1.1	> 100	83.5 ± 0.9	7.11 ± 0.01	–	–	–	–	2 to 3	–
CC1=N[C@@H]2[C@@H](O)[C@H](O)[C@@H](CO)O[C@@H]2S1 [NGT, NAG-thiazoline]	–	–	–	–	–	–	–	–	–	0.07

Further lines, with some results ahead:

inhibition at 100 µM [1] [%]	Ki [1] [µM]	inhibition at 100 µM (human O-GlcNAcase (hOGA)) [%]	Ki (human O-GlcNAcase (hOGA)) [µM]	increase in potency against hOGA (human O-GlcNAcase (hOGA); compared to lead compound 2 (Ki)) [fold]	inhibitory mechanism toward hOGA (human O-GlcNAcase (hOGA))	decrease in inhibitory potency against hOGA (human O-GlcNAcase (hOGA); 10d compared to 10a (Ki)) [fold]	potency against hOGA reduced (human O-GlcNAcase (hOGA); 16h (NHCH3) compared to 16d (CH2CH3))	decrease in inhibitory activity against hOGA (human O-GlcNAcase (hOGA)) [fold]	Compound	Ki (HsHex) [µM]
36.5 ± 0.8	> 100	98.7 ± 0.3	0.61 ± 0.02	~6	competitive inhibitors	–	–	–	CC(=O)N[C@@H]1[C@@H](O)[C@H](O)[C@@H](CO)O[C@H]1SCC(=O)NCCCN1C(=O)c2cccc3c(Br)ccc(c23)C1=O [Compound 10a]	–
49.2 ± 1.4	> 100	90.6 ± 0.5	4.43 ± 0.21	–	–	–	–	–	COc1ccc2c3c(cccc13)C(=O)N(CCCNC(=O)CS[C@@H]1O[C@H](CO)[C@@H](O)[C@H](O)[C@H]1NC(C)=O)C2=O [Compound 10b]	–
36.9 ± 0.2	> 100	84.4 ± 1.7	9.72 ± 0.49	–	–	–	–	–	CC(=O)N[C@@H]1[C@@H](O)[C@H](O)[C@@H](CO)O[C@H]1SCC(=O)NCCCN1C(=O)c2cccc3c(N(C)C)ccc(c23)C1=O [Compound 10c]	–
32.8 ± 2.7	> 100	93.1 ± 0.2	1.42 ± 0.02	–	competitive inhibitors	2.3	–	–	CC(=O)N[C@@H]1[C@@H](O)[C@H](O)[C@@H](CO)O[C@H]1SCC(=O)NCCCN1C(=O)c2cccc3c(N4CCCCC4)ccc(c23)C1=O [Compound 10d]	–
12.2 ± 0.2	> 100	22 ± 0.5	> 100	–	–	–	–	–	O=C(CS[C@@H]1O[C@H](CO)[C@@H](O)[C@H](O)[C@H]1NC(=O)c1ccccc1)NCCCN1C(=O)c2cccc3c(N4CCCCC4)ccc(c23)C1=O [Compound 16a]	–
15.8 ± 0.4	> 100	50.9 ± 0.8	> 100	–	–	–	–	–	O=C(CS[C@@H]1O[C@H](CO)[C@@H](O)[C@H](O)[C@H]1NC(=O)c1ccc(F)cc1)NCCCN1C(=O)c2cccc3c(N4CCCCC4)ccc(c23)C1=O [Compound 16b]	–
2 ± 1.1	> 100	9.7 ± 0.7	> 100	–	–	–	–	–	O=C(CS[C@@H]1O[C@H](CO)[C@@H](O)[C@H](O)[C@H]1NC(=O)OCc1ccccc1)NCCCN1C(=O)c2cccc3c(N4CCCCC4)ccc(c23)C1=O [Compound 16c]	–
28.7 ± 2	> 100	88 ± 1.5	1.69 ± 0.05	–	–	–	–	–	CCC(=O)N[C@@H]1[C@@H](O)[C@H](O)[C@@H](CO)O[C@H]1SCC(=O)NCCCN1C(=O)c2cccc3c(N4CCCCC4)ccc(c23)C1=O [Compound 16d]	–
24.6 ± 1.5	> 100	78.9 ± 1.9	12.8 ± 0.27	–	–	–	–	–	CCCC(=O)N[C@@H]1[C@@H](O)[C@H](O)[C@@H](CO)O[C@H]1SCC(=O)NCCCN1C(=O)c2cccc3c(N4CCCCC4)ccc(c23)C1=O [Compound 16e]	–
